Key:
[1] = test system: patients with daily medication overuse headache (MOH) based on tension-type headache; assay: Intake of overused analgesic medication recorded by the same MOH patients; assay type: in vivo, human; conditions: for Analgesics Usage: 15 to 30 mg mirtazapine per day for 8 weeks, last four weeks of intake; for Reduction of Analgesics Usage versus placebo: mirtazapine 15 to 30 mg per day vs placebo period, last four weeks
Experimental: (§1) a) Patients had daily medication overuse headache (MOH) originating from daily analgesic use primarily against tension-type headache as primary headache. They were treated first with placebo for 8 weeks, followed by two weeks of wash-out (taking placebo), and then administration of 15 to 30 mg of mirtazapine per day for 8 weeks. During that time they were allowed to continue taking their analgesics as usual, if they felt it was necessary.
b) Moreover, the intake of overused analgesic medication was recorded by the same patients and during the time frame as described above in (a). Patient 1 reduced the intake of overused medication by 80% (Table 2). As for patient 2, the reduction is 15%, whereby both patients additionally benefit from improved well-being, i.e. from decreased number of headache attacks, shorter headache attacks with lower headache intensity (see above).

[2] = test system: patients with daily medication overuse headache (MOH) based on tension-type headache; assay: Headache diary AUC (headache duration multiplied with headache intensity) in MOH patients, placebo then mirtazapine; assay type: in vivo, human; conditions: for AUC (sum of daily headache duration multiplied with headache intensity): 15 to 30 mg mirtazapine per day for 8 weeks, last four weeks of intake, analgesics allowed; for Reduction of AUC versus placebo: mirtazapine 15 to 30 mg per day vs placebo period, last four weeks
Experimental: as §1
At the same time, they had to keep a diary where they had to write down the frequency and duration of their headache as well as the headache intensity. After completion of the study the diaries were evaluated and the daily recordings of headache duration was multiplied with headache intensity to give the “AUC”, which means “area under the curve”. The results shown in table 1 and table 2 below are from the last four weeks of intake of either placebo or mirtazapine. […] It can be seen that both patients experienced improvement of their headache upon administration of mirtazapine.
FIG. 1 depicts the subjective well-being of patients, i.e. decreased number of headache attacks, shorter headache attacks with lower headache intensity. The lower the count of the y-axis, the better is the subjective well-being. AUC means area under the curve. AUC was calculated as the sum of the daily recordings of headache duration multiplied with headache intensity.

## CN1CCN2c3ncccc3Cc3ccccc3C2C1 (racemic) [Mirtazapine, (RS)-(±)-2-methyl-1,2,3,4,10,14b-hexahydropyrazino[2,1-a]pyrido[2,3-c][2]benzazepine]
[1]; Patient 1
  Analgesics Usage: 2
  Reduction of Analgesics Usage versus placebo: 80%
[1]; Patient 1, listed as mirtazapine
  Reduction of Analgesics Usage versus placebo: 80%
[1]; Patient 2
  Analgesics Usage: 47
  Reduction of Analgesics Usage versus placebo: 15%
[1]; Patient 2, listed as mirtazapine
  Reduction of Analgesics Usage versus placebo: 15%
[2]; Patient 1
  AUC (sum of daily headache duration multiplied with headache intensity): 420
  Reduction of AUC versus placebo: 62%
[2]; Patient 2
  AUC (sum of daily headache duration multiplied with headache intensity): 895
  Reduction of AUC versus placebo: 34%
